According to patent US12258561B2, “Compositions and methods to promote bone formation and their uses including for the treatment of cancer” (THE RESEARCH FOUNDATION FOR THE STATE UNIVERSITY OF NEW YORK, priority 2014, dated 2025):

Tests used:
[1] = test system: monocytes cultured to become osteoclasts; experiment: TRAP staining and assay of osteoclast number; assay type: cell-based, human, mouse
Procedure: TRAP Staining and the Assay of Osteoclast Number: Osteoclasts were derived from either an enriched population of human monocytes or from mouse non-enriched whole bone marrow aspirates. Three human patient bone marrow samples were assayed in parallel with samples collected from 3-week (n=10) mouse bone marrow. The monocyte fraction was stimulated to become osteoclasts by culturing 1×10^6 cells with 25-ng/mL of MCSF and 25-ng/mL of recombinant human or mouse RANK-ligand (R&D Systems) in the presence of the met5-ligand ([5-μM] 2.87-, or [50-μM] 28.7-μg; Sigma), naloxone (400-ng or 400-μg; Sigma) or naltrexone (378-ng or 378-μg; Sigma). Osteoclasts were stained with tartrate resistant acid phosphatase (TRAP; Sigma Leukocyte Acid Phosphatase Kit 387-A) and counted when cells stained TRAP-positive and had at least three nuclei. Estimates of osteoclast number were obtained by Cavalieri sampling and a modification of the fractionator technique.

[2] = test system: unicortical defect in mouse tibia; experiment: Opioid antagonist containing collagen implant in unicortical defect model, microCT; assay type: in vivo, C57BL/6 mice; details: 7 days after surgery
Excerpt: Implantation of Opioid Antagonist Containing Collagen Implant into a Unicortical Defect Model: Male 5-week old C57BL/6 mice (n=5 per treatment group for a total of 25 total animals) were used in this study. […] Unicortical defects were surgically administered through a small incision (approximately 3-mm) made just below the knee joint, located on the medial side of the tibia just below the tibial tuberosity on the tibial crest. In 5-weeks old male mice, the physeal plate is clearly visible and the drill bit was placed approximately 1-mm below this point. The drill-bit produces a unicortical defect with dimensions 300-μm diameter×1-mm depth. […] In parallel, a separate group of animals served as non-surgical controls. Mice were euthanized 7-days after surgery, hind limbs were collected and tibias were prepared for micro-CT (μCT) analysis.
(§1) MicroCT Analysis of Unicortical Defects: High-resolution images of the tibia were acquired with μCT imaging system (μT40; Scanco Medical). Tibias were scanned at 45-keV with an isotropic voxel size of 12-μm. An analysis region was selected from axial sections to include the entire unicortical defect bounded by the endosteal cortical wall. The volume corrected bone volume (bone volume/total volume; By/Tv), trabecular number (TbN) and trabecular thickness (TbTh) were calculated using the Scanco software.

[3] = test system: unicortical defect in mouse tibia; experiment: Unicortical defect model, direct injection, microCT; assay type: in vivo, C57BL/6 mice
Procedure: Unicortical Defect Model: Male 3-week old C57BL/6 mice (n=5 per treatment group) were injected with met5, naloxone or naltrexone following the creation of a unicortical defect. Briefly, a small incision (approximately 3-mm) was made just below the knee joint, located on the medial side of the tibia just below the tibial tuberosity on the tibial crest. In young animals the physeal plate is clearly visible and the drill bit was placed approximately 1-mm below this point. The drill-bit produces a unicortical defect with dimensions 300-μm diameter×1-mm depth. A Hamilton Neuros RN 10-μL syringe with a 33-gauge blunt tip needle was used to inject 2-μL of met5 (28.7-μg), naloxone (400-μg) or naltrexone (378-μg) resuspended in saline directly into the unicortical defect at a rate no faster than approximately 0.1-μL per second. The left-limb tibias served as contra-lateral surgical controls, in which animals received a unicortical defect and 2-μL of saline was injected. Mice were euthanized 5-days after surgery, hind limbs were collected and tibias were fixed for immunofluorescence, TRAP staining and OTC associated bone growth.
as §1

[4] = test system: MSC; experiment: Assay of cell number (MTT) in MSC cultures; assay type: cell-based, human; details: 1-mM
Procedure: (§2) Assay of Cell Number: Following the addition of 1-mM naloxone or 1-mM naltrexone, viable cell number was determined with the MTT assay. After 72-hours and 120-hours, MTT (5 mg/ml (w/v), Sigma) was added to each well, incubated for 2-hours, after which the cells lysed with 500-μl of DMSO (Sigma). MTT was measured at 570-nm and the effects of therapy on cell proliferation were determined by normalizing treated wells relative to mean values from non-treated wells: Fold change in cell number=100*[treated cells optical density/mean control optical density].

[5] = test system: Hs822t Ewing's sarcoma of bone tumor cells; experiment: Assay of cell number (MTT), Hs822t cells; assay type: cell-based; details: 1-mM, seventy-two hours
Excerpt: Methods: Human bone marrow was collected from consenting adult patients undergoing either an elective primary proximal femoral total hip arthroplasty or elective primary distal femoral total knee arthroplasty (n=6, mean age 65) as a part of an IRB approved study. Human MSC were derived from the adherent fraction of whole bone marrow aspirates. Ewing's sarcoma tumor cells (RDES, Hs822 and Hs863) and SaOS2 osteosarcoma tumor cells were obtained from ATCC. Cells were maintained in Dulbecco's Modification of Eagle's Media (DMEM) containing 10% fetal calf serum (v/v) and 1% penicillin-streptomycin-glutamine (PSG; Cellgro, Mediatech).
as §2

[6] = collagen implant, 25-ng BMP2, 1-mM naltrexone or 1-mM naloxone

C=CCN1CC[C@]23c4c5ccc(O)c4O[C@H]2C(=O)CC[C@@]3(O)[C@H]1C5 [naloxone]
osteoclast number (TRAP staining) ([1]; 1-mM): reduced osteoclast number substantially
osteoclast number (TRAP staining) ([1]; 1-μM): did not significantly reduce osteoclast number
increase in trabecular thickness relative to all other treatment groups ([2]; 1-mM naloxone with collagen implant): approximately 37%
Bv/Tv relative to non-surgical controls ([2]; collagen implant): increased relative to non-surgical controls
trabecular thickness (TbTh) relative to the control non-surgical group ([2]; collagen implant): increased within the defect significantly
increase in Bv/Tv relative to BMP2 treatment group ([2]; collagen implant, 1-mM): 18.2%
increase in Bv/Tv relative to the PBS treated group [2, 6]: 56.5%
increase in Bv/Tv relative to the surgical control group [2, 6]: 83.8%
increase in trabecular number (TbN) ([3]; 1-mM injected into defect): 1.2 fold
increase in bone mass (Bv/Tv) ([3]; 1-mM injected into defect, relative to control PBS or met5 treated defects): 1.53 fold
bone healing ([3]; naloxone 1-mM or met5 50-μM): increased bone healing
MSC proliferation (cell number) ([4]; 72-hours): suppressed, but did not stop
MSC proliferation (cell number) ([4]; 120-hours): suppressed, but did not stop
Hs822t tumor cell number relative to control cultures [5]: no effect
